Values after ≈ are worked out from the molar mass of the structure shown. Like-named read-outs stand apart in the source and are kept apart here.
What was measured:
[1] = test system: endogenous Class I HDACs/HDAC6; test: Cellular HDAC assay, Boc_Lys_Ac substrate, Jurkat E6.1 cells; type: cell-based
Protocol: Briefly, Jurkat E6.1 cells (obtained from the European Collection of Cell Cultures (ECACC)) were plated into 384 well plates at 75,000 cells/well in cellular assay buffer (RPMI without phenol red, 0.1% Fetal Bovine Serum, 10 mM HEPES, 1 mM Sodium Pyruvate). […] Fluorescent counts were read the following morning on the Perkin Elmer EnVision.
Each compound was tested in duplicate in concentration-response format on 3 separate days. […] A full dose response of reference compound was always included alongside the profiling, to ensure that assay parameters remained within acceptable limits.

[2] = Solubility in water, formulations and DMSO; type: physicochemical
Protocol: Thomas and colleagues reported that a solution of 4b at 1 mg/mL was previously obtained using this procedure. […] We therefore prepared both TFA and hydrochloride (HCl) salts of 4b to establish whether they could offer improved solubility. Neither salt form of 4b was particularly soluble in water (<1 mg/ml). […] A study of the stability of the TFA salt also raised another more worrying issue in the use of 2-hydroxypropyl-β-cyclodextrin–complexed 4b salts for potential in vivo studies. […] The 4b. TFA cyclodextrin suspension targeted at 1 mg/ml with heating gave an initial (day 1) measured value of 0.75 mg/ml total 4b, with only 0.27 mg/mL solubilised as quantified in the sample after filtration. The lower than expected initial quantification of 4b was most likely due to the TFA salt rapidly degrading upon heating. Indeed, we always found the presence of the cyclised benzimidazole conversion product, named throughout as product C1, in the salt formulations even at t = 0 after preparation. Furthermore, the suspension was not stable upon standing in the dark with gentle shaking at room temperature, with a further 28% decrease observed in parent (4b) concentration on day 7 analysis, compared to day 1.
As a consequence de novo formulation attempts were made with the stable free base form. After several trials with different excipients, we were able to reach a soluble formulation preparation of 1 mg/ml 4b in 2% N-methyl-2-pyrollidone, 18% polyethylene glycol 400, 10% solutol HS-15 and 70% (1% Lutrol F68 in water), a vehicle which we have previously used without any adverse effects in R6/2 model chronic efficacy trials, but is unlikely to be palatable to mice in drinking water. With this concentration, a single oral gavage dose will result in a maximum of 10 mg/kg dose level (assuming a maximum dose volume of […]), considerably lower than that estimated to have been used by Thomas et al (150 mg/kg day in drinking water). In an attempt to replicate the original dose level as close as possible, it became necessary to formulate the test compound in suspension. We achieved a stable homogeneous suspension of free base 4b up to 100 mg/ml in 0.5% carboxymethylcellulose (medium viscosity) in reverse osmosis deionized (RODI) water. This suspension was used to evaluate the oral pharmacokinetics of 4b in mice. […]

[3] = Cerep binding, antagonist radioligand; settings: 10 μM
From the text: (§1) In addition to the HDAC profiling performed, we also queried 4b for any apparent potential off-target effects, which could complicate any finding of efficacy or adverse events in vivo due to ‘polypharmacy’. This was accomplished by screening against a ‘diversity panel’ of 72 binding and 29 enzyme assays, comprised of roughly equal numbers of selective central and peripheral therapeutically relevant targets (Cerep Diversity Profile). This panel included representative targets from diverse enzyme families, G protein coupled receptors, steroid nuclear receptors, voltage- and ligand-gated ion channels. While not totally inclusive, it is a useful tool for discovery compounds to assess their viability as proof of concept molecules to specifically query a particular target. 4b was initially screened at 10 µM in duplicate. The full set of results is provided as Table S1. […] This clean in vitro profile was considered acceptable to proceed to ADME and pharmacokinetic studies.

[4] = biological target: T1, 5‐HT transporter (h) (Homo sapiens, UniProt P31645); test: Cerep binding, antagonist radioligand; settings: read-out: % inhibition of control specific binding
T1 construct: purchased Cerep (Diversity Profile)
From the text: as §1

[5] = biological target: T2, A1 (h) (Homo sapiens, UniProt P30542); test: Cerep binding, antagonist radioligand; settings: read-out: % inhibition of control specific binding
T2 construct: purchased Cerep (Diversity Profile)
From the text: as §1

[6] = test system: Ca2+ channel (L, verapamil site) (phenylalkylamine); test: Cerep binding, antagonist radioligand; settings: 10 μM
From the text: as §1

[7] = test system: Cl‐channel (GABA‐gated); test: Cerep binding, antagonist radioligand; settings: 10 μM
From the text: as §1

[8] = biological target: T3, D2S (h) (Homo sapiens, UniProt P14416); test: Cerep binding, antagonist radioligand; settings: read-out: % inhibition of control specific binding
T3 construct: purchased Cerep (Diversity Profile)
From the text: as §1

[9] = biological target: T4, D3 (h) (Homo sapiens, UniProt P35462); test: Cerep binding, antagonist radioligand; settings: read-out: % inhibition of control specific binding
T4 construct: purchased Cerep (Diversity Profile)
From the text: as §1

[10] = biological target: T5, D4.4 (h) (Homo sapiens, UniProt P21917); test: Cerep binding, antagonist radioligand; settings: read-out: % inhibition of control specific binding
T5 construct: purchased Cerep (Diversity Profile)
From the text: as §1

[11] = biological target: T6, H1 (h) (Homo sapiens, UniProt P35367); test: Cerep binding, antagonist radioligand; settings: read-out: % inhibition of control specific binding
T6 construct: purchased Cerep (Diversity Profile)
From the text: as §1

[12] = test system: I2; test: Cerep binding, antagonist radioligand; settings: 10 μM
From the text: as §1

[13] = test system: KV channel; test: Cerep binding, antagonist radioligand; settings: 10 μM
From the text: as §1

[14] = biological target: T7, choline transporter (CHT1) (h) (Homo sapiens, UniProt Q9GZV3); test: Cerep binding, antagonist radioligand; settings: read-out: % inhibition of control specific binding
T7 construct: purchased Cerep (Diversity Profile)
From the text: as §1

[15] = biological target: T8, dopamine transporter (h) (Homo sapiens, UniProt Q01959); test: Cerep binding, antagonist radioligand; settings: read-out: % inhibition of control specific binding
T8 construct: purchased Cerep (Diversity Profile)
From the text: as §1

[16] = biological target: T9, norepinephrine transporter (h) (Homo sapiens, UniProt P23975); test: Cerep binding, antagonist radioligand; settings: read-out: % inhibition of control specific binding
T9 construct: purchased Cerep (Diversity Profile)
From the text: as §1

T3 sequence (P14416 1-414 isoform P14416-2): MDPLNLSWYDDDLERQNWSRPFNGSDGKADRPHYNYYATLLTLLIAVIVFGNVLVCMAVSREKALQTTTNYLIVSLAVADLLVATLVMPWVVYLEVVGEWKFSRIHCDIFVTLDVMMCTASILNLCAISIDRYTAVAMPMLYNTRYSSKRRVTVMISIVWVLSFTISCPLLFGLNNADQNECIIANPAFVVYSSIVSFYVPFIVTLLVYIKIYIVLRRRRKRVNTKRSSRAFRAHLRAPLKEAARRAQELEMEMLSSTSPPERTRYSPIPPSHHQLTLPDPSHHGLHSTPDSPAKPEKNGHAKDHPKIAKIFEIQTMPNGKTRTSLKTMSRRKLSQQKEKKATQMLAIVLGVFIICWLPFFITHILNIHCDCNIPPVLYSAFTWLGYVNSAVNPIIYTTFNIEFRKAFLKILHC
T2 sequence (P30542 whole entry): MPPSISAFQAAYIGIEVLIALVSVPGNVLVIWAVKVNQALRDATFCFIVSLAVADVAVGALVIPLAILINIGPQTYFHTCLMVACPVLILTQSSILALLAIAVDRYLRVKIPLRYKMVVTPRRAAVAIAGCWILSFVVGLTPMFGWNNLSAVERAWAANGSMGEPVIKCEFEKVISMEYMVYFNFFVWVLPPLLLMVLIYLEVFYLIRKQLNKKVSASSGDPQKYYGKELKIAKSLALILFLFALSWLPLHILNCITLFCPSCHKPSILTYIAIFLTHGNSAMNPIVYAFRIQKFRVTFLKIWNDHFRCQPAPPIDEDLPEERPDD
T7 sequence (Q9GZV3 whole entry): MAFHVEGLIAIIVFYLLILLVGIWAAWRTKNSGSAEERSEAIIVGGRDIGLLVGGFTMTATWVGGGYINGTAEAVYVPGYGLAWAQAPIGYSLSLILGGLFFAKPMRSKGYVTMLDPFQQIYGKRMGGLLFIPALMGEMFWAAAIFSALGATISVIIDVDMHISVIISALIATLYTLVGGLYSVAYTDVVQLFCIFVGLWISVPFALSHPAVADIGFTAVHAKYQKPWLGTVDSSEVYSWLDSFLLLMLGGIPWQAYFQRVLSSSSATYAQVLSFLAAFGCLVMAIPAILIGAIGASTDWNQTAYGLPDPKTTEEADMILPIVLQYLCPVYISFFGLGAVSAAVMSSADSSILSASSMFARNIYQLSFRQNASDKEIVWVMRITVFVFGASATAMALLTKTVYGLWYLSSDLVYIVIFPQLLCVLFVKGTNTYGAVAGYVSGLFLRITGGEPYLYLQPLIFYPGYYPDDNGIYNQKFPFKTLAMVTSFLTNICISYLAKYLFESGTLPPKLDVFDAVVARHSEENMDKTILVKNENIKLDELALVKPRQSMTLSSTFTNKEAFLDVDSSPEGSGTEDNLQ
T1 sequence (P31645 whole entry): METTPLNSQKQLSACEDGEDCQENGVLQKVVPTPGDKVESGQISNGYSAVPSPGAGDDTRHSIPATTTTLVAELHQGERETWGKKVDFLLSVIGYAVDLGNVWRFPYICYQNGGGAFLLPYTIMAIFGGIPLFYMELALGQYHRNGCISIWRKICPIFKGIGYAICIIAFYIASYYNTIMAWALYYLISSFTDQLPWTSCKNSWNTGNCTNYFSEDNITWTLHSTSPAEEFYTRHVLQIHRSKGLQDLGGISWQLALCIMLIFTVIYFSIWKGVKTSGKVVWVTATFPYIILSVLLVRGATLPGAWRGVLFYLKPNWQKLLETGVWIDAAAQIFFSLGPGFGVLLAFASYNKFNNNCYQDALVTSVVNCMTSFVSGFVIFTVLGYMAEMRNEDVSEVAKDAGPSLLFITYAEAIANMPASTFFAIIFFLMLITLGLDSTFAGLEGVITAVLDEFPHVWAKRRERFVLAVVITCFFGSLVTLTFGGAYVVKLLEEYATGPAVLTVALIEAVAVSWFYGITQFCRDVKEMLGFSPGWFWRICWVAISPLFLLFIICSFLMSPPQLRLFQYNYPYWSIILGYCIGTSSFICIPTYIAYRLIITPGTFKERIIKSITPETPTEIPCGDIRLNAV
T6 sequence (P35367 whole entry): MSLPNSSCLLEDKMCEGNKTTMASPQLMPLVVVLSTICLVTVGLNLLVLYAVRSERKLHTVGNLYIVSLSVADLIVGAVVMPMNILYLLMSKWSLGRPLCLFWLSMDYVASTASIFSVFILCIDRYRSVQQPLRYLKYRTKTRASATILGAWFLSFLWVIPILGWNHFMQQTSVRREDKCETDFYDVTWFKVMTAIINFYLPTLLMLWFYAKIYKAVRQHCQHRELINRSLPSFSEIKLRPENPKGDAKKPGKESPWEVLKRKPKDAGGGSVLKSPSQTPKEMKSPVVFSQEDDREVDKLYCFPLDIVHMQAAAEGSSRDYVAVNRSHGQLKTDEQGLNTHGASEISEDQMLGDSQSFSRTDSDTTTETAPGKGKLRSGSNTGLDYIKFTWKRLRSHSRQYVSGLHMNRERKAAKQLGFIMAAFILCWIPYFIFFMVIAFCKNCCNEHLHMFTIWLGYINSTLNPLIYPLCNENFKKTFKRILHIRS
T4 sequence (P35462 whole entry): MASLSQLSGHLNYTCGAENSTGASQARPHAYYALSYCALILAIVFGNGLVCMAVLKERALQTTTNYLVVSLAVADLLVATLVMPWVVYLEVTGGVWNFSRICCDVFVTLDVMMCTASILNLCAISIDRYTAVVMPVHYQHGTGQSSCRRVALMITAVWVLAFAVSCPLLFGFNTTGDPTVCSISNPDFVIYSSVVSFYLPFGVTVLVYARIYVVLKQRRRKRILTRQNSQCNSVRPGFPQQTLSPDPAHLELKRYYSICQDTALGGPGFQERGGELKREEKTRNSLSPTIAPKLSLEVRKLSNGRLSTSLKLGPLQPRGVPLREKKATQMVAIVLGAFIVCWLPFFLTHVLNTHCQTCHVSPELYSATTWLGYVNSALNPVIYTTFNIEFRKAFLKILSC
T8 sequence (Q01959 whole entry): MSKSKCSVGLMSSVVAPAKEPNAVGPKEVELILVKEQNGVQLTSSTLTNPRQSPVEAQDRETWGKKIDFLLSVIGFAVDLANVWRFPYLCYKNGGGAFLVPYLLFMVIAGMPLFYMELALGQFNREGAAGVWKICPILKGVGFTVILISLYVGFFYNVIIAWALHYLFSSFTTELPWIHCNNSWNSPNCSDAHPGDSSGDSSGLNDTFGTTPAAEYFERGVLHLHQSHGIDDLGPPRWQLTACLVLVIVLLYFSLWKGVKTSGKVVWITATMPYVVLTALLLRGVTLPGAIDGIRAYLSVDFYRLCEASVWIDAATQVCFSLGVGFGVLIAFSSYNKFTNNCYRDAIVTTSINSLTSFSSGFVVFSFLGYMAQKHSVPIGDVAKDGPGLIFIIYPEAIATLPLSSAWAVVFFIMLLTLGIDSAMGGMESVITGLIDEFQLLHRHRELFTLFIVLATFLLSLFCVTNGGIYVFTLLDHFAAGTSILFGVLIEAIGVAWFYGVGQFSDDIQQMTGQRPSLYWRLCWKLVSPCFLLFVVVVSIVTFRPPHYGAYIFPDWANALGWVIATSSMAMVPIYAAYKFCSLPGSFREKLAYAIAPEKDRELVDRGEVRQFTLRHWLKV
T5 sequence (P21917 whole entry): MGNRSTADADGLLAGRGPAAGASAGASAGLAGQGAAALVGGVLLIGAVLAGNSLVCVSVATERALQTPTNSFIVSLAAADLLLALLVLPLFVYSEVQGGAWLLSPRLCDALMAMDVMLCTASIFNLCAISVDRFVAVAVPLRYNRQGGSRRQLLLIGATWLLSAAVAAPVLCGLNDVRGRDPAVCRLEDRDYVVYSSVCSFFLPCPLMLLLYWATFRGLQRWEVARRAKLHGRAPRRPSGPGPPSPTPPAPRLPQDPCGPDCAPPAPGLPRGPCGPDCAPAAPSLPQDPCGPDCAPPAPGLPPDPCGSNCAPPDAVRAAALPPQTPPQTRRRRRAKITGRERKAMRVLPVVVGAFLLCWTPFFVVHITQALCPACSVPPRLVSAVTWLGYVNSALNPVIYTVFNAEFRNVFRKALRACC
T9 sequence (P23975 whole entry): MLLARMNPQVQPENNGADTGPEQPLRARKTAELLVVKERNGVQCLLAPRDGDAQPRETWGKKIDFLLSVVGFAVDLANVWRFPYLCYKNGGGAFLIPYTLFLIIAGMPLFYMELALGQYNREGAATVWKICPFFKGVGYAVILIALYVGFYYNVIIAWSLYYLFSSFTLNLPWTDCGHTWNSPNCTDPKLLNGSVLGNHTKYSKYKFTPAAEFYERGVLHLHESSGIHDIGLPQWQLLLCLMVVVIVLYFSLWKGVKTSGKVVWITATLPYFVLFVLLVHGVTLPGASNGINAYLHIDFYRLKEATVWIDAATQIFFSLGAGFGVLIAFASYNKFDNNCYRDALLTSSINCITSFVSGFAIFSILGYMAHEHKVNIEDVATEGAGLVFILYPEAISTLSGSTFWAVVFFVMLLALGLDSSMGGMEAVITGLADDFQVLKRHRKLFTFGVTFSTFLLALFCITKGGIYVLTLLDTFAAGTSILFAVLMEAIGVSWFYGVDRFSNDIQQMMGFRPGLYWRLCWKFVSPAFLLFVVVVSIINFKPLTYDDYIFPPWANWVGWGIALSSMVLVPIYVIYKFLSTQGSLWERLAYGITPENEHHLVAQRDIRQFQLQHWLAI

For `Nc1ccccc1NC(=O)CCCCCC(=O)Nc1ccccc1` [Compound 4b], the IC50 ([1]; 24 h pre-incubation with cells (maximal), read-out: cellular IC50, Boc_Lys_Ac substrate ('Class I' HDAC inhibition)) was 1.8 µM, the IC50 ([1]; Jurkat E6.1, standard protocol, total incubation time 5 h, read-out: cellular IC50, Boc_Lys_Ac substrate (Class I inhibition)) was 5.3 µM and the IC50 ([1]; dilution prepared 21 h previously in DMSO or aqueous buffer, no pre-incubation with cells, read-out: cellular IC50, Boc_Lys_Ac substrate) was 15 µM. It also gave an IC50 ([1]; freshly prepared compound dilution, no pre-incubation with cells, read-out: cellular IC50, Boc_Lys_Ac substrate) of 16 µM, an IC50 ([1]; no pre-incubation with cells, read-out: cellular IC50, Boc_Lys_Ac substrate) of 16 µM and a solubility ([2]; NMP/PEG400/Solutol HS-15/Lutrol F68 aqueous vehicle, aqueous with cosolvent or surfactant or cyclodextrin, free base, 2% N-methyl-2-pyrollidone, 18% polyethylene glycol 400, 10% solutol HS-15, 70% (1% Lutrol F68 in water), read-out: soluble formulation concentration) of 1000 µg/mL (≈ 3.07 mM). For the same compound, the “4b dissolved (filtrate of suspension)” value ([2]; free base, 2-hydroxypropyl-β-cyclodextrin 1∶5 molar ratio, target 1 mg/mL) was 0.1 mg/mL, the solubility in water ([2]; neutral pH, free base) was “highly insoluble” and the “solubility in DMSO” value ([2]; prepared at 1 mg/ml) was “soluble”. The “% inhibition of control specific binding” value [3] was 0%, the inhibition at 10 µM [4] was 5% and the inhibition at 10 µM [5] was 7%. The “% inhibition of control specific binding” value [6] was 7%, the “% inhibition of control specific binding” value [7] was 0% and the inhibition at 10 µM [8] was 3%. For the same compound, the inhibition at 10 µM [9] was 10%, the inhibition at 10 µM [10] was 13% and the inhibition at 10 µM [11] was 10%. For the same compound, the “% inhibition of control specific binding” value [12] was 5%, the “% inhibition of control specific binding” value [13] was 2% and the inhibition at 10 µM [14] was 14%. It also gave an inhibition at 10 µM [15] of 2% and an inhibition at 10 µM [16] of 0%.

With `O=C(CCCCCc1nc2ccccc2[nH]1)Nc1ccccc1` [Compound C1, 6-(1-H-benzo[d]imidazol-2-yl)-N-phenylhexanamide] the “activity in the Class I cellular HDAC (Boc_Lys_Ac) assay” value ([1]; up to 50 µM, 5 h incubation) was “no activity”, the “solubility in aqueous media” value [2] was “readily soluble” and the “% inhibition of control specific binding” value [3] was 13%. For the same compound, the inhibition at 10 µM ([4]; 10 μM) was 5%, the inhibition at 10 µM ([5]; 10 μM) was 9% and the “% inhibition of control specific binding” value [6] was 19%. The “% inhibition of control specific binding” value [7] was 0%, the inhibition at 10 µM ([8]; 10 μM) was 2% and the inhibition at 10 µM ([9]; 10 μM) was 11%. For the same compound, the inhibition at 10 µM ([10]; 10 μM) was 31%, the inhibition at 10 µM ([11]; 10 μM) was 45% and the “% inhibition of control specific binding” value [12] was 73%. For the same compound, the “% inhibition of control specific binding” value [13] was 3%, the inhibition at 10 µM ([14]; 10 μM) was 40% and the inhibition at 10 µM ([15]; 10 μM) was 23%. For the same compound, the inhibition at 10 µM ([16]; 10 μM) was 30%.

— article PMC3433414, “Oral Administration of the Pimelic Diphenylamide HDAC Inhibitor HDACi 4b Is Unsuitable for Chronic Inhibition of HDAC Activity in the CNS In Vivo” (PLoS ONE, 2012)
